# No end group written: not given here.
# Test system: dexamethasone-suppressed male FVB/N mice
# Experiment: in vivo Serum Corticosteroid Inhibition Assay (Example 2)
# Parameters: species or system mouse
# Settings: for serum corticosterone at 180 minutes: blood one hour later; for reduction in serum corticosterone levels: ACTH alone normalized to 100%, FIG. 2; for corticosterone induction as percent of that of wildtype ACTH: 1 hour after last peptide injection
# Protocol: The in vivo Serum Corticosteroid Inhibition Assay can include sequential administration of the test compound and the corticosteroid-producing compound by the following steps: first, an agent to suppress endogenous ACTH production was administered to a mouse subject, such as an intraperitoneal injection of dexamethasone; second, after waiting a suitable period of time for suppression of endogenous ACTH production (e.g., 1.5-2.0 hours), a test compound was administered to the mouse by a suitable method, such as intraperitoneal injection; third, after waiting a suitable period of time (e.g., 1 hour) for action of the test compound, a compound with corticosteroid-producing activity can be administered to the mouse by a suitable method, such as intraperitoneal injection; and fourth, after waiting a suitable period of time for the biological activity of both administered compounds to occur (e.g., 1 hour), a blood sample was taken from the subject and the level of serum corticosterone was determined by a suitable method, such as a competitive radioimmunoassay using ^125I RIA kit (ICN, Costa Mesa, Calif.). Optionally, steps two and three can be reversed (administering the corticosteroid-producing compound first, followed by administration of the test compound). The in vivo Serum Corticosteroid Inhibition Assay can also include co-administration of the test compound and the corticosteroid-producing compound by the following steps: first, an agent to suppress endogenous ACTH production was administered to a mouse subject, such as an intraperitoneal injection of dexamethasone; second, after waiting a suitable period of time for suppression of endogenous ACTH production (e.g., 1.5-2.0 hours), the corticosteroid-producing compound and a test compound were co-administered to the mouse by a suitable method, such as intraperitoneal injection; and third, after waiting a suitable period of time for the biological activity of both administered compounds to occur (e.g., 1 hour), a blood sample was taken from the subject and the level of serum corticosterone was determined by a suitable method, such as a competitive radioimmunoassay using ^125I RIA kit (ICN, Costa Mesa, Calif.). Also, in some embodiments, the first step in any in vivo Serum Corticosteroid Inhibition Assay can be replaced by a measurement of the initial endogenous corticosteroid or corticosteroid level in the blood of the subject in the manner of step four, instead of administering the agent to suppress ACTH production. Example 2 describes murine in vivo Serum Corticosteroid Inhibition Assays in detail.
# A series of separate in vivo Serum Corticosteroid Inhibition Assays were performed to identify ACTH analogs that inhibit ACTH adrenal hormone production in vivo. The serum corticosterone levels of dexamethasone-suppressed mice were measured as described in Example 2 after administration of (1) ACTH (corticosteroid-producing compound), (2) an ACTH analog (test compound) followed by subsequent administration of ACTH, (3) a combination of ACTH and the ACTH analog and (4) the ACTH analog alone.
# The in vivo Serum Corticosteroid Inhibition Assay was performed according the following method. The ACTH analog test compounds, such as those showing low activities in Example 1, were tested for their abilities to inhibit adrenal hormone production induced by unmodified ACTH.
# First, two to three month-old male FVB/N mice from our colony, five per group, were injected intraperitoneally with dexamethasone (0.4 mg/0.1 ml PBS per mouse; Sigma, St. Louis, Mo.) to suppress their endogenous ACTH production.
# Second, ninety to one hundred twenty minutes later, animals were injected subcutaneously between the shoulder blades with wild type ACTH and/or test ACTH analog peptides (1 μg/0.1 mL PBS/0.5% BSA) or with vehicle alone (0.1 mL PBS/0.5% BSA). […]
substance,measurement,setting,value
N-Ser^1-Tyr-Ser-Met-Glu^5-His-Phe-Arg-Trp-Gly^10-Lys-Pro-Val-Gly-Lys^15-Arg-Ala-Ala-Trp-Val^20-Lys-Val-Tyr-Pro-Ac (SYSMEHFRWGKPVGKRAAWVKVYP; not fully specified; printed as N-Ser1-Tyr-Ser-Met-Glu5-His-Phe-Arg-Trp-Gly10-Lys-Pro-Val-Gly-Lys15-Arg-Ala-Ala-Trp-Val20-Lys-Val-Tyr-Pro-Ac) [AT814],serum corticosterone at 180 minutes,"ACTH analog alone 120 minutes after dexamethasone (AT), listed as (KKRRP15-19KRAAW) mACTH(1-24)",about 7±7 ng/mL
same,serum corticosterone at 180 minutes,"ACTH analog alone 120 minutes after dexamethasone (AT), listed as (KKRRP15-19KRAAW)mACTH(1-24)",7 ± 7 ng/mL
same,serum corticosterone at 180 minutes,"ACTH analog at 90 minutes, mACTH(1-24) at 120 minutes after dexamethasone (AT90-ACTH120), listed as (KKRRP15-19KRAAW) mACTH(1-24)",175 ± 27 ng/mL
same,serum corticosterone at 180 minutes,"ACTH analog at 90 minutes, mACTH(1-24) at 120 minutes after dexamethasone (AT90-ACTH120), listed as (KKRRP15-19KRAWW)mACTH(1-24)",175 ± 27 ng/mL
same,serum corticosterone at 180 minutes,ACTH analog together with mACTH(1-24) at 120 minutes after dexamethasone ((AT + ACTH)120),51 ± 8 ng/mL
same,serum corticosterone at 180 minutes,"ACTH analog together with mACTH(1-24) at 120 minutes after dexamethasone ((AT + ACTH)120), listed as (KKRRP15-19KRAAW)mACTH(1-24)",51 ± 8 ng/mL
same,reduction in serum corticosterone levels,analog 30 minutes before ACTH,~65%
same,reduction in serum corticosterone levels,analog concurrently with ACTH,~90%
same,corticosterone induction as percent of that of wildtype ACTH,applied 30 minutes before the ACTH injection,35%
same,corticosterone induction as percent of that of wildtype ACTH,applied at the same time as the ACTH injection,10%

# Source: patent US7919577B2, “Adrenocorticotropic hormone analogs and related methods” (Colorado Seminary, priority 2004, dated 2011)
